Source: ChEMBL document CHEMBL6109125, “A New Protractor Potentiates Glucagon-Like Peptide 1 with Slow-Release Depot and Long-Term Action” (J Med Chem, 2025)
Each block holds one molecule with its values, some of them ahead of it. The source made the active and inactive calls. No cut-off for these calls is given here.

How the values were obtained:
[1] = Apparent volume of distribution in BALB/c mouse at 0.5 mg/kg, iv measured up to 48 hrs by LC-MS/MS analysis; assay type: ADME, organism-based; settings: in vivo, read-out: Vz
[2] = Apparent volume of distribution in Sprague-Dawley rat at 1 mg/kg, iv measured up to 48 hrs by LC-MS/MS analysis; assay type: ADME, organism-based; settings: in vivo, read-out: Vz
Mus musculus [3] = assay: Anti-hyperglycemic activity in type-2 diabetes db/db mouse assessed as regulation of blood glucose level at 3 to 600 nmol/kg, sc measured up to 96 hrs; assay type: functional, organism-based
Mus musculus [4] = assay: Anti-hyperglycemic activity in 16 hr-fasted type-2 diabetes db/db mouse assessed as homeostasis of blood glucose level at 100 nmol/kg, sc pretreated for 0.5 hrs followed by glucose administration measured for 2 hrs; assay type: functional, organism-based; settings: time 2.5 hrs
Mus musculus [5] = assay: Anti-hyperglycemic activity in 16 hr-fasted type-2 diabetes db/db mouse at 100 nmol/kg, sc pretreated for 0.5 hrs followed by glucose administration measured for 2 hrs by OGTT method; assay type: functional, organism-based; settings: time 2.5 hrs
Mus musculus [6] = assay: Anti-hyperglycemic activity in well-fed type-2 diabetes db/db mouse assessed as blood glucose level at 100 nmol/kg, sc administered on every 48 hrs; assay type: functional
[7] = molecular target: T1, Glucagon-like peptide 1 receptor (Homo sapiens, UniProt P43220); assay: Agonist activity at GLP-1R (unknown origin) expressed in HEK293 cells co-expressing CRE-Luc assessed as increase in intracellular cAMP accumulation in presence of 10% FBS by luciferase based assay; assay type: functional, cell-based; settings: read-out: EC50
[8] = molecular target: T1, Glucagon-like peptide 1 receptor; assay: Agonist activity at GLP-1R (unknown origin) expressed in HEK293 cells co-expressing CRE-Luc assessed as increase in intracellular cAMP accumulation by luciferase based assay; assay type: functional, cell-based; settings: read-out: EC50
[9] = molecular target: T1, Glucagon-like peptide 1 receptor; assay: Agonist activity at GLP-1R (unknown origin) expressed in HEK293 cells co-expressing CRE-Luc assessed as increase in intracellular cAMP accumulation in presence of 2% HSA by luciferase based assay; assay type: functional, cell-based; settings: read-out: EC50
[10] = Selectivity ratio of EC50 for agonist activity at GLP-1R (unknown origin) expressed in HEK293 cells co-expressing CRE-Luc assessed as increase in intracellular cAMP accumulation in presence of 2% HSA to EC50 for agonist activity at GLP-1R (unknown origin) expressed in HEK293 cells co-expressing CRE-Luc assessed as increase in intracellular cAMP accumulation; assay type: cell-based
[11] = Stability in Sprague-Dawley rat plasma assessed as compound remaining measured after 96 hrs by RP-HPLC analysis; assay type: ADME, cell-free; settings: read-out: Stability
[12] = Stability in Sprague-Dawley rat plasma assessed as drug degradation by measuring half life measured after 96 hrs by RP-HPLC analysis; assay type: ADME, cell-free
Albumin = Albumin (Homo sapiens, UniProt P02768); assay: Binding affinity to human serum albumin immobilized on AR2G biosensor assessed as dissociation constant incubated for 3 mins by BLI assay; assay type: ADME
Albumin, sequence (P02768 whole entry): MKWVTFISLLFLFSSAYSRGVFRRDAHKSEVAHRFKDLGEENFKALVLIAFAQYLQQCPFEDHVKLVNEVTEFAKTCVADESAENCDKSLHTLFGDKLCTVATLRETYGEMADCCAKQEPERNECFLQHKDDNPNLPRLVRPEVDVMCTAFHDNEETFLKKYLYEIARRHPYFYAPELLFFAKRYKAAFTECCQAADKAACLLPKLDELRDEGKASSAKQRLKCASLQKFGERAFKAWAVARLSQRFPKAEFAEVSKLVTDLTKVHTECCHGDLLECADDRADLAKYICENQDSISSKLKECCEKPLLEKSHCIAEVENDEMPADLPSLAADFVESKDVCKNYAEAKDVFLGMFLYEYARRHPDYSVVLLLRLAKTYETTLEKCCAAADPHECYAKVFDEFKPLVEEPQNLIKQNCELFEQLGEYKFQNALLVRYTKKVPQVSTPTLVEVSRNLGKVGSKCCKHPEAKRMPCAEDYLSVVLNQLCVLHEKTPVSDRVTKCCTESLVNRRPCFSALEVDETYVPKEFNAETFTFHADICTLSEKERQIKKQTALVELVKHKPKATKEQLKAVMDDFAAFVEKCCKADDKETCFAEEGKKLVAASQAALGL

T1 sequence (P43220 whole entry): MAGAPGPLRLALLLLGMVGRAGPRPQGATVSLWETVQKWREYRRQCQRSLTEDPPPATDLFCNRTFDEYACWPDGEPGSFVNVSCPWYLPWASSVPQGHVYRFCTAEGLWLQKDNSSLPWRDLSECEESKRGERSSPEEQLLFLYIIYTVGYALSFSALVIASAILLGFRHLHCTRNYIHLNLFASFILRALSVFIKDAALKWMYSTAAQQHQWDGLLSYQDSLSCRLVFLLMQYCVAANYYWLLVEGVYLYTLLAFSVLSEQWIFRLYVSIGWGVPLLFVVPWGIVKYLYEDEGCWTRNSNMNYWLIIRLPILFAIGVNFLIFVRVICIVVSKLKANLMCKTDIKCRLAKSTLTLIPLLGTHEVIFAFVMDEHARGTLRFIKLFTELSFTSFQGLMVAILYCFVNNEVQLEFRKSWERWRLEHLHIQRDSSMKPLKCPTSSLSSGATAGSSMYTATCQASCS

Molecule: CCOc1ccc(Nc2ccc(/C(=C3C=C/C(=[N+](\CC)Cc4cccc(S(=O)(=O)[O-])c4)C=C\3C)c3ccc(N(CC)Cc4cccc(S(=O)(=O)NCCCCCC(=O)NCCOCCOCCOCCOCCOCCOCCOCCOCCC(=O)NCCCC[C@H](NC(=O)[C@@H](NC(=O)[C@H](CC(C)C)NC(=O)[C@H](Cc5c[nH]c6ccccc56)NC(=O)[C@H](C)NC(=O)[C@@H](NC(=O)[C@H](Cc5ccccc5)NC(=O)[C@H](CCC(=O)O)NC(=O)[C@H](CCCCN)NC(=O)[C@H](C)NC(=O)[C@H](C)NC(=O)[C@H](CCC(N)=O)NC(=O)CNC(=O)[C@H](CCC(=O)O)NC(=O)[C@H](CC(C)C)NC(=O)[C@H](Cc5ccc(O)cc5)NC(=O)[C@H](CO)NC(=O)[C@H](CO)NC(=O)[C@@H](NC(=O)[C@H](CC(=O)O)NC(=O)[C@H](CO)NC(=O)[C@@H](NC(=O)[C@H](Cc5ccccc5)NC(=O)[C@@H](NC(=O)CNC(=O)[C@H](CCC(=O)O)NC(=O)[C@H](CO)NC(=O)[C@@H](N)Cc5c[nH]cn5)[C@@H](C)O)[C@@H](C)O)C(C)C)[C@@H](C)CC)C(C)C)C(=O)NCC(=O)N[C@@H](CCCNC(=N)N)C(N)=O)c4)cc3C)cc2)cc1
EC50 [7]: 3.96 pM
EC50 [8]: 0.33 pM
EC50 [9]: 0.84 pM
Ratio EC50 [10]: 2.55

Molecule: CCOc1ccc(Nc2ccc(/C(=C3C=C/C(=[N+](\CC)Cc4cccc(S(=O)(=O)[O-])c4)C=C/3C)c3ccc(N(CC)Cc4cccc(S(=O)(=O)NCCCCCC(=O)N[C@@H](CS(=O)(=O)O)C(=O)NCCOCCOCC(=O)NCCCC[C@H](NC(=O)[C@H](C)NC(=O)[C@H](C)NC(=O)[C@H](CCC(N)=O)NC(=O)CNC(=O)[C@H](CCC(=O)O)NC(=O)[C@H](CC(C)C)NC(=O)[C@H](Cc5ccc(O)cc5)NC(=O)[C@H](CO)NC(=O)[C@H](CO)NC(=O)[C@@H](NC(=O)[C@H](CC(=O)O)NC(=O)[C@H](CO)NC(=O)[C@@H](NC(=O)[C@H](Cc5ccccc5)NC(=O)[C@@H](NC(=O)CNC(=O)[C@H](CCC(=O)O)NC(=O)C(C)(C)NC(=O)[C@@H](N)Cc5c[nH]cn5)[C@@H](C)O)[C@@H](C)O)C(C)C)C(=O)N[C@@H](CCC(=O)O)C(=O)N[C@@H](Cc5ccccc5)C(=O)N[C@H](C(=O)N[C@@H](C)C(=O)N[C@@H](Cc5c[nH]c6ccccc56)C(=O)N[C@@H](CC(C)C)C(=O)N[C@H](C(=O)N[C@@H](CCCNC(=N)N)C(=O)NCC(=O)N[C@@H](CCCNC(=N)N)C(=O)NCC(=O)O)C(C)C)[C@@H](C)CC)c4)cc3C)cc2)cc1
EC50 [7]: 1.16 pM
EC50 [8]: 1.13 pM
EC50 [9]: 4.25 pM

Molecule: CCOc1ccc(Nc2ccc(/C(=C3C=C/C(=[N+](\CC)Cc4cccc(S(=O)(=O)[O-])c4)C=C/3C)c3ccc(N(CC)Cc4cccc(S(=O)(=O)NCCCCCC(=O)NCCOCCOCCOCCOCCOCCOCCOCCOCCC(=O)NCCCC[C@H](NC(=O)[C@H](C)NC(=O)[C@H](C)NC(=O)[C@H](CCC(N)=O)NC(=O)CNC(=O)[C@H](CCC(=O)O)NC(=O)[C@H](CC(C)C)NC(=O)[C@H](Cc5ccc(O)cc5)NC(=O)[C@H](CO)NC(=O)[C@H](CO)NC(=O)[C@@H](NC(=O)[C@H](CC(=O)O)NC(=O)[C@H](CO)NC(=O)[C@@H](NC(=O)[C@H](Cc5ccccc5)NC(=O)[C@@H](NC(=O)CNC(=O)[C@H](CCC(=O)O)NC(=O)C(C)(C)NC(=O)[C@@H](N)Cc5c[nH]cn5)[C@@H](C)O)[C@@H](C)O)C(C)C)C(=O)N[C@@H](CCC(=O)O)C(=O)N[C@@H](Cc5ccccc5)C(=O)N[C@H](C(=O)N[C@@H](C)C(=O)N[C@@H](Cc5c[nH]c6ccccc56)C(=O)N[C@@H](CC(C)C)C(=O)N[C@H](C(=O)N[C@@H](CCCNC(=N)N)C(=O)NCC(=O)N[C@@H](CCCNC(=N)N)C(=O)NCC(=O)O)C(C)C)[C@@H](C)CC)c4)cc3C)cc2)cc1
EC50 [7]: 0.93 pM
EC50 [8]: 0.16 pM
EC50 [9]: 2.44 pM

Molecule: CCOc1ccc(Nc2ccc(/C(=C3C=C/C(=[N+](/CC)Cc4cccc(S(=O)(=O)[O-])c4)C=C/3C)c3ccc(N(CC)Cc4cccc(S(=O)(=O)O)c4)cc3C)cc2)cc1 [BRILLIANT BLUE G FREE ACID]
Kd (Albumin): 320000 pM

Continued, in another order:

Vd [1]: 0.083 L/kg
Vd [2]: 0.163 L/kg
EC50 (Mus musculus [3]): 2 nmol/kg
Molecule: CC[C@H](C)[C@H](NC(=O)[C@H](Cc1ccccc1)NC(=O)[C@H](CCC(=O)O)NC(=O)[C@H](CCCCNC(=O)COCCOCCNC(=O)COCCOCCNC(=O)CC[C@H](NC(=O)CCCCCCCCCCCCCCCCC(=O)O)C(=O)O)NC(=O)[C@H](C)NC(=O)[C@H](C)NC(=O)[C@H](CCC(N)=O)NC(=O)CNC(=O)[C@H](CCC(=O)O)NC(=O)[C@H](CC(C)C)NC(=O)[C@H](Cc1ccc(O)cc1)NC(=O)[C@H](CO)NC(=O)[C@H](CO)NC(=O)[C@@H](NC(=O)[C@H](CC(=O)O)NC(=O)[C@H](CO)NC(=O)[C@@H](NC(=O)[C@H](Cc1ccccc1)NC(=O)[C@@H](NC(=O)CNC(=O)[C@H](CCC(=O)O)NC(=O)C(C)(C)NC(=O)[C@@H](N)Cc1cnc[nH]1)[C@@H](C)O)[C@@H](C)O)C(C)C)C(=O)N[C@@H](C)C(=O)N[C@@H](Cc1c[nH]c2ccccc12)C(=O)N[C@@H](CC(C)C)C(=O)N[C@H](C(=O)N[C@@H](CCCNC(=N)N)C(=O)NCC(=O)N[C@@H](CCCNC(=N)N)C(=O)NCC(=O)O)C(C)C
Activity (Mus musculus [4]): Active
Activity (Mus musculus [5]): Active
Activity (Mus musculus [6]): <10 mM

EC50 [7]: 16.1 pM
EC50 [8]: 62.8 pM
EC50 [9]: 84.2 pM
remaining at 96 h [11]: 0%
half-life [12]: 50 min
Molecule: H-HGEGTFTSDVSSYLEGQAAREFIAWLVRGRG-NH2
Ratio EC50 [10]: 1.34

EC50 [7]: 4.08 pM
EC50 [8]: 1.12 pM
EC50 [9]: 8.86 pM
Molecule: CCOc1ccc(Nc2ccc(/C(=C3C=C/C(=[N+](\CC)Cc4ccc(S(=O)(=O)[O-])cc4)C=C/3C)c3ccc(N(CC)Cc4cccc(S(=O)(=O)NCCCCCC(=O)N[C@H](C(=O)O)C(=O)NCCCC[C@H](NC(=O)[C@H](C)NC(=O)[C@H](C)NC(=O)[C@H](CCC(N)=O)NC(=O)CNC(=O)[C@H](CCC(=O)O)NC(=O)[C@H](CC(C)C)NC(=O)[C@H](Cc5ccc(O)cc5)NC(=O)[C@H](CO)NC(=O)[C@H](CO)NC(=O)[C@@H](NC(=O)[C@H](CC(=O)O)NC(=O)[C@H](CO)NC(=O)[C@@H](NC(=O)[C@H](Cc5ccccc5)NC(=O)[C@@H](NC(=O)CNC(=O)[C@H](CCC(=O)O)NC(=O)C(C)(C)NC(=O)[C@@H](N)Cc5c[nH]cn5)[C@@H](C)O)[C@@H](C)O)C(C)C)C(=O)N[C@@H](CCC(=O)O)C(=O)N[C@@H](Cc5ccccc5)C(=O)N[C@H](C(=O)N[C@@H](C)C(=O)N[C@@H](Cc5c[nH]c6ccccc56)C(=O)N[C@@H](CC(C)C)C(=O)N[C@H](C(=O)N[C@@H](CCCNC(=N)N)C(=O)NCC(=O)N[C@@H](CCCNC(=N)N)C(=O)NCC(=O)O)C(C)C)[C@@H](C)CC)c4)cc3C)cc2)cc1
Ratio EC50 [10]: 7.91

EC50 [7]: 6.98 pM
EC50 [8]: 1.66 pM
EC50 [9]: 7.08 pM
Molecule: CCOc1ccc(Nc2ccc(/C(=C3C=C/C(=[N+](\CC)Cc4cccc(S(=O)(=O)[O-])c4)C=C/3C)c3ccc(N(CC)Cc4cccc(S(=O)(=O)NCCCCCC(=O)N[C@@H](CS(=O)(=O)O)C(=O)N[C@@H](CS(=O)(=O)O)C(=O)NCCCC[C@H](NC(=O)[C@H](C)NC(=O)[C@H](C)NC(=O)[C@H](CCC(N)=O)NC(=O)CNC(=O)[C@H](CCC(=O)O)NC(=O)[C@H](CC(C)C)NC(=O)[C@H](Cc5ccc(O)cc5)NC(=O)[C@H](CO)NC(=O)[C@H](CO)NC(=O)[C@@H](NC(=O)[C@H](CC(=O)O)NC(=O)[C@H](CO)NC(=O)[C@@H](NC(=O)[C@H](Cc5ccccc5)NC(=O)[C@@H](NC(=O)CNC(=O)[C@H](CCC(=O)O)NC(=O)C(C)(C)NC(=O)[C@@H](N)Cc5c[nH]cn5)[C@@H](C)O)[C@@H](C)O)C(C)C)C(=O)N[C@@H](CCC(=O)O)C(=O)N[C@@H](Cc5ccccc5)C(=O)N[C@H](C(=O)N[C@@H](C)C(=O)N[C@@H](Cc5c[nH]c6ccccc56)C(=O)N[C@@H](CC(C)C)C(=O)N[C@H](C(=O)N[C@@H](CCCNC(=N)N)C(=O)NCC(=O)N[C@@H](CCCNC(=N)N)C(=O)NCC(=O)O)C(C)C)[C@@H](C)CC)c4)cc3C)cc2)cc1
